Each structure is given as a SMILES string.

The results in this text go back to patent US8907089B2, “Fused heterocyclic ring derivative and use thereof” (Takeda Pharmaceutical Company Limited, priority 2009, dated 2014).

In this test the test system is NIH-3T3/Gli reporter cells (Hedgehog signal, Gli reporter luciferase; Smo inhibitory action). Briefly: Gli reporter luciferase assay in NIH-3T3/Gli reporter cells stimulated with mouse Shh-N end fragment. Type of test: cell-based. Conditions: NIH3T3; 1 μM compound; NIH-3T3/Gli reporter cells with mouse Shh-N end fragment culture supernatant, 48 hr; luciferase activity, control without compound as 100; read-out: inhibition rate (%) at 1 μM. The source says: Inhibition of the Hedgehog signal transduction system can be measured, for example, by quantifying a decrease in the expression level of a reporter gene connected to the downstream of the Gli binding site based on the fluorescence intensity according to the following Experimental Example 1. Alternatively, it can be measured by quantifying the expression of Gli-1 mRNA in a cell extract by quantitative PCR method and the like. A compound that inhibits Hedgehog signal targets Smo, which can be confirmed, for example, by binding fluorescence-labeled Cyclopamine and a test compound to cells expressing Smo, measuring the fluorescence level of the cell, and comparing the value with that without addition of a test compound to find a decrease.
Gli reporter plasmid was constructed by inserting 8×Gli-binding site and chicken 8-crystalline promoter into the upstream of luc+ of pGL3 (Promega).
prepared in reference to the base sequence described in GenBank accession No.; X02187, and chicken genome DNA (Clontech) as a template. PCR reaction was performed using Pfu Turbo (Stratagene) and following the attached protocol. The obtained 108 bp fragment was digested with restriction enzymes BglII and HindIII, and inserted into BglII-HindIII site of pGL3 to give plasmid pGL3/δ-cry promoter.
As 8×Gli-binding site, a sequence containing eight 9-bp Gli bound consensus sequences (GACCACCCA) described in Yoon et al., J. Biol. Chem., vol. 273, pages 3496-3501 (1998) was prepared from synthetic DNA. That is, two synthetic DNAs,
were heat treated at 95° C. for 2 minutes, and incubated at 37° C. for 1 hr for annealing to give a double stranded DNA of the above-mentioned two synthetic DNAs. The obtained double stranded DNA was digested with restriction enzymes BglII and KpnI, and the obtained DNA fragment was inserted into BglII-KpnI site of pGL3/8-cry promoter to construct plasmid pGL3/8-cry promoter, 8×Gli binding site, i.e., Gli reporter plasmid. 2. Construction of plasmid for expression of mouse Shh-N end Fragment
HEK293 cells were grown in D-MEM medium (Invitrogen) containing 10% fetal bovine serum in a 10 cm dish and pcDNA3.1/mShh-N was introduced into the cells using FuGENE6 (Roche Applied Science). Thereafter, the HEK293 cells were cultured in a carbon dioxide gas incubator at 37° C. for 24 hours, and the medium was exchanged with D-MEM medium (Invitrogen) containing 2% fetal bovine serum. After culturing for 48 hr, a culture supernatant containing recombinant type mouse Shh-N end fragment was obtained by filtration using a filter ([…]).
Using D-MEM (Invitrogen) containing 10% fetal bovine serum, expression plasmid pcDNA3.1 and Gli reporter plasmid (pGL3/8-cry promoter, 8×Gli binding site) produced by the method of Experimental Example 1 were introduced into NIH-3T3 cells grown in a 10 cm dish by the use of FuGENE6 (Roche Applied Science).
After culture for 24 hr, the cells were recovered, suspended in D-MEM medium containing 10% fetal bovine serum and supplemented with Geneticin (Life Technologies Oriental, Inc.) to a final concentration of 500 μg/ml, diluted to 10^4 cells/ml, plated on a 96 well plate, and cultured in a carbon dioxide gas incubator at 37° C. to give Geneticin resistant transformed cell line.
The obtained transformed cell line was cultured in a 96 well plate, mouse Shh-N end fragment obtained in Experimental Example 3 was added, and NIH-3T3/Gli reporter cell, which is a cell line capable of induction of luciferase expression, was selected.
NIH-3T3/Gli reporter cells cultured in D-MEM (Invitrogen) containing 10% fetal bovine serum were plated in a 96 well white plate at 1×10^4 cells/well, and cultured overnight in a carbon dioxide gas incubator at 37° C. The medium was removed, a compound (50 μl) and culture supernatant of mouse Shh-N end fragment-expressing HEK293 (D-MEM medium containing 2% fetal bovine serum, 50 μl) were added, and the cells were cultured for 48 hr in a carbon dioxide gas incubator at 37° C. […]

The term inhibition denotes the change of the read-out against control, counted positive when it falls. Take `CCc1cc2c(c(OCC(F)(F)F)c(C(=O)NC3CCN(C(=O)CO)CC3)n2C)c(=O)n1-c1ccccc1` [Example 1, 6-ethyl-N-[1-(hydroxyacetyl)piperidin-4-yl]-1-methyl-4-oxo-5-phenyl-3-(2,2,2-trifluoroethoxy)-4,5-dihydro-1H-pyrrolo[3,2-c]pyridine-2-carboxamide]: the inhibition at 1 µM was 98%.
Under `CCOc1c(C(=O)NC2CCN(C(=O)CO)CC2)n(C)c2cc(CC)n(-c3ccccc3)c(=O)c12` [Example 3, 3-ethoxy-6-ethyl-N-[1-(hydroxyacetyl)piperidin-4-yl]-1-methyl-4-oxo-5-phenyl-4,5-dihydro-1H-pyrrolo[3,2-c]pyridine-2-carboxamide] stands 97%; under `CCc1cc2c(c(OC(C)C)c(C(=O)NC3CCN(C(=O)CO)CC3)n2C)c(=O)n1-c1ccccc1` [Example 4, 6-ethyl-N-[1-(hydroxyacetyl)piperidin-4-yl]-1-methyl-3-(1-methylethoxy)-4-oxo-5-phenyl-4,5-dihydro-1H-pyrrolo[3,2-c]pyridine-2-carboxamide], 97%.
The value for `Cc1ccc(-n2c(C)cc3c(c(OCC(F)(F)F)c(C(=O)NC4CCN(C(=O)CO)CC4)n3C)c2=O)cc1` [Example 8, N-[1-(hydroxyacetyl)piperidin-4-yl]-1,6-dimethyl-5-(4-methylphenyl)-4-oxo-3-(2,2,2-trifluoroethoxy)-4,5-dihydro-1H-pyrrolo[3,2-c]pyridine-2-carboxamide] was 97%.
`CCc1cc2c(c(OCC(F)(F)F)c(C(=O)NC3CCN(C(=O)CO)CC3)n2C)c(=O)n1-c1ccc(C(F)(F)F)cc1` [Example 9, 6-ethyl-N-[1-(hydroxyacetyl)piperidin-4-yl]-1-methyl-4-oxo-3-(2,2,2-trifluoroethoxy)-5-[4-(trifluoromethyl)phenyl]-4,5-dihydro-1H-pyrrolo[3,2-c]pyridine-2-carboxamide]: the inhibition at 1 µM stood at 97%.
Consider `CCOc1c(C(=O)NC2CCN(C(=O)CO)CC2)n(C)c2cc(CC)n(-c3ccc(C(F)(F)F)cc3)c(=O)c12` [Example 10, 3-ethoxy-6-ethyl-N-[1-(hydroxyacetyl)piperidin-4-yl]-1-methyl-4-oxo-5-[4-(trifluoromethyl)phenyl]-4,5-dihydro-1H-pyrrolo[3,2-c]pyridine-2-carboxamide], for which the inhibition at 1 µM is 96%.
As for `CCc1cc2c(c(OC(C)C)c(C(=O)NC3CCN(C(=O)CO)CC3)n2C)c(=O)n1-c1ccc(C(F)(F)F)cc1` [Example 11, 6-ethyl-N-[1-(hydroxyacetyl)piperidin-4-yl]-1-methyl-3-(1-methylethoxy)-4-oxo-5-[4-(trifluoromethyl)phenyl]-4,5-dihydro-1H-pyrrolo[3,2-c]pyridine-2-carboxamide], the inhibition at 1 µM worked out at 96%.
In the case of `CCc1cc2c(c(OCC(F)(F)F)c(C(=O)NC3CCN(C(=O)CO)CC3)n2C)c(=O)n1-c1ccc(OC)cc1` [Example 12, 6-ethyl-N-[1-(hydroxyacetyl)piperidin-4-yl]-5-(4-methoxyphenyl)-1-methyl-4-oxo-3-(2,2,2-trifluoroethoxy)-4,5-dihydro-1H-pyrrolo[3,2-c]pyridine-2-carboxamide], the inhibition at 1 µM was 97%.
As for `CCOc1c(C(=O)NC2CCN(C(=O)CO)CC2)n(C)c2cc(CC)n(-c3ccc(OC)cc3)c(=O)c12` [Example 13, 3-ethoxy-6-ethyl-N-[1-(hydroxyacetyl)piperidin-4-yl]-5-(4-methoxyphenyl)-1-methyl-4-oxo-4,5-dihydro-1H-pyrrolo[3,2-c]pyridine-2-carboxamide], the inhibition at 1 µM came to 97%.
Turning to `CCc1cc2c(c(OC(C)C)c(C(=O)NC3CCN(C(=O)CO)CC3)n2C)c(=O)n1-c1ccc(OC)cc1` [Example 14, 6-ethyl-N-[1-(hydroxyacetyl)piperidin-4-yl]-5-(4-methoxyphenyl)-1-methyl-3-(1-methylethoxy)-4-oxo-4,5-dihydro-1H-pyrrolo[3,2-c]pyridine-2-carboxamide], the inhibition at 1 µM worked out at 96%.
The value for `CCc1cc2c(c(OCC(F)(F)F)c(C(=O)NC3CCN(C(=O)CO)CC3)n2C)c(=O)n1-c1cccc(F)c1` [Example 15, 6-ethyl-5-(3-fluorophenyl)-N-[1-(hydroxyacetyl)piperidin-4-yl]-1-methyl-4-oxo-3-(2,2,2-trifluoroethoxy)-4,5-dihydro-1H-pyrrolo[3,2-c]pyridine-2-carboxamide] was 99%; that for `CCOc1c(C(=O)NC2CCN(C(=O)CO)CC2)n(C)c2cc(CC)n(-c3cccc(F)c3)c(=O)c12` [Example 16, 3-ethoxy-6-ethyl-5-(3-fluorophenyl)-N-[1-(hydroxyacetyl)piperidin-4-yl]-1-methyl-4-oxo-4,5-dihydro-1H-pyrrolo[3,2-c]pyridine-2-carboxamide] was 96%; that for `CCc1cc2c(c(OC(C)C)c(C(=O)NC3CCN(C(=O)CO)CC3)n2C)c(=O)n1-c1cccc(F)c1` [Example 17, 6-ethyl-5-(3-fluorophenyl)-N-[1-(hydroxyacetyl)piperidin-4-yl]-1-methyl-3-(1-methylethoxy)-4-oxo-4,5-dihydro-1H-pyrrolo[3,2-c]pyridine-2-carboxamide] was 95%.
For the molecule `CCc1cc2c(c(OCC(F)(F)F)c(C(=O)NC3CCN(C(=O)CO)CC3)n2C)c(=O)n1-c1ccc(F)cc1` [Example 20, 6-ethyl-5-(4-fluorophenyl)-N-[1-(hydroxyacetyl)piperidin-4-yl]-1-methyl-4-oxo-3-(2,2,2-trifluoroethoxy)-4,5-dihydro-1H-pyrrolo[3,2-c]pyridine-2-carboxamide], the inhibition at 1 µM is 96%.
In the case of `CCOc1c(C(=O)NC2CCN(C(=O)CO)CC2)n(C)c2cc(CC)n(-c3ccc(F)cc3)c(=O)c12` [Example 21, 3-ethoxy-6-ethyl-5-(4-fluorophenyl)-N-[1-(hydroxyacetyl)piperidin-4-yl]-1-methyl-4-oxo-4,5-dihydro-1H-pyrrolo[3,2-c]pyridine-2-carboxamide], the inhibition at 1 µM was 96%.
`CCc1cc2c(c(OC(C)C)c(C(=O)NC3CCN(C(=O)CO)CC3)n2C)c(=O)n1-c1ccc(F)cc1` [Example 22, 6-ethyl-5-(4-fluorophenyl)-N-[1-(hydroxyacetyl)piperidin-4-yl]-1-methyl-3-(1-methylethoxy)-4-oxo-4,5-dihydro-1H-pyrrolo[3,2-c]pyridine-2-carboxamide]: the inhibition at 1 µM came to 97%.
